# Laboratory results reported in patent US20250129070A1, “BIFUNCTIONAL ANDROGEN RECEPTOR COMPOUNDS” (priority 2023, published 2025).
# Key:
# [1] = system: AR / CBP ternary complex; assay: Ternary complex formation assay (sandwich ELISA, AR capture / CBP detection) in VCaP cell lysates; type: cell-based; conditions: 1.5 hours treatment, sandwich ELISA (AR capture, CBP or p300 detection)
# Outline: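 VCaP cells (50K/well, 5% charcoal-stripped FBS, ≥3 days) treated with bifunctional compound for 1.5 h, then lysed 30 min at 4 °C. AR captured on anti-AR (AR 441) plates; bound CBP or p300 detected by rabbit mAb plus HRP secondary. QuantaRed chemifluorescence read at ex 570/em 585, immediately and at 5 and 15 min.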
# [2] = system: VCaP cells; assay: VCaP growth inhibition assay; type: cell-based; conditions: 30 pM R1881, 9 days, CTG
# Outline: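 VCaP cells in phenol red-free DMEM/5% CSS, pre-incubated 72 h, then stimulated with R1881 (final 30 pM) and treated with 1:5 serial dilutions (final 100 nM to 10 fM) for 9 days at 37 °C. Viability by CellTiter-Glo luminescence; IC50 from 4-parameter logistic fit of RLU vs concentration.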
SMILES,EC50 [1] [nM],IC50 [2] [nM]
"CC(=O)N1CCc2c(c(N3CCCc4cc(-c5cnn(C)c5)ccc43)nn2C2CCN(CC3CCN(c4ncc(C(=O)NC5C(C)(C)C(Oc6ccc(C#N)c(Cl)c6)C5(C)C)cn4)CC3)CC2)C1 (stereo not drawn) [Compound 24, 2-[4-[[4-[5-acetyl-3-[6-(1-methylpyrazol-4-yl)-3,4-dihydro-2H-quinolin-1-yl]-6,7-dihydro-4H-pyrazolo[4,3-c]pyridin-1-yl]-1-piperidyl]methyl]-1-piperidyl]-N-[3-(3-chloro-4-cyano-phenoxy)-2,2,4,4-tetramethyl-cyclobutyl]pyrimidine-5-carboxamide]",< 1,0.1 to 1
"CC(=O)N1CCc2c(c(N3CCCc4ccc(C(F)F)cc43)nn2C2CC3(C2)CN(C(=O)C2CC4(C2)CN(c2ncc(C(=O)NC5C(C)(C)C(Oc6ccc(C#N)c(Cl)c6)C5(C)C)cn2)C4)C3)C1 (stereo not drawn) [Compound 218, 2-[6-[6-[5-acetyl-3-[7-(difluoromethyl)-3,4-dihydro-2H-quinolin-1-yl]-6,7-dihydro-4H-pyrazolo[4,3-c]pyridin-1-yl]-2-azaspiro[3.3]heptane-2-carbonyl]-2-azaspiro[3.3]heptan-2-yl]-N-[3-(3-chloro-4-cyano-phenoxy)-2,2,4,4-tetramethyl-cyclobutyl]pyrimidine-5-carboxamide]",> 100,1 to 100
"COc1cc(OC2C(C)(C)C(NC(=O)c3ccc(N4CCC(n5ncc6c5CCC(n5nc(N7CCCc8cc(-c9cnn(C)c9)c(C(F)F)cc87)c7c5CCN(C(C)=O)C7)C6)CC4)cc3)C2(C)C)ccc1C#N (stereo not drawn) [Compound 265, 4-[4-[5-[5-acetyl-3-[7-(difluoromethyl)-6-(1-methylpyrazol-4-yl)-3,4-dihydro-2H-quinolin-1-yl]-6,7-dihydro-4H-pyrazolo[4,3-c]pyridin-1-yl]-4,5,6,7-tetrahydroindazol-1-yl]-1-piperidyl]-N-[3-(4-cyano-3-methoxy-phenoxy)-2,2,4,4-tetramethyl-cyclobutyl]benzamide]",< 1,≤ 0.1

# Second part, the molecule after the results:
EC50 [1] [nM],IC50 [2] [nM],SMILES
1 to 10,> 100,"Cn1c(=O)n(C)c2cc(N3CCCc4cc(-c5ccc(CCC6CCN(c7ncc(C(=O)NC8C(C)(C)C(Oc9ccc(C#N)c(Cl)c9)C8(C)C)cn7)CC6)nc5)c(C(F)F)cc43)ccc21 (stereo not drawn) [Compound 233, N-[3-(3-chloro-4-cyano-phenoxy)-2,2,4,4-tetramethyl-cyclobutyl]-2-[4-[2-[5-[7-(difluoromethyl)-1-(1,3-dimethyl-2-oxo-benzimidazol-5-yl)-3,4-dihydro-2H-quinolin-6-yl]-2-pyridyl]ethyl]-1-piperidyl]pyrimidine-5-carboxamide]"
< 1,0.1 to 1,"CC(=O)N1CCc2c(c(Nc3ccc(-c4cnn(C)c4)cc3F)nn2C2CCN(C(=O)CC3CCN(c4ncc(C(=O)NC5C(C)(C)C(Oc6ccc(C#N)c(Cl)c6)C5(C)C)cn4)CC3)CC2)C1 (stereo not drawn) [Compound 178, 2-[4-[2-[4-[5-acetyl-3-[2-fluoro-4-(1-methylpyrazol-4-yl)anilino]-6,7-dihydro-4H-pyrazolo[4,3-c]pyridin-1-yl]-1-piperidyl]-2-oxo-ethyl]-1-piperidyl]-N-[3-(3-chloro-4-cyano-phenoxy)-2,2,4,4-tetramethyl-cyclobutyl]pyrimidine-5-carboxamide]"
< 1,≤ 0.1,"COC1CN(c2ncc(C(=O)NC3C(C)(C)C(Oc4ccc(C#N)c(Cl)c4)C3(C)C)cn2)CCC1CN1CCC(n2nc(N3CCCc4cc(-c5cnn(C)c5)c(C(F)F)cc43)c3c2CCN(C(C)=O)C3)CC1 (stereo not drawn) [Compound 329, 2-[4-[[4-[5-acetyl-3-[7-(difluoromethyl)-6-(1-methylpyrazol-4-yl)-3,4-dihydro-2H-quinolin-1-yl]-6,7-dihydro-4H-pyrazolo[4,3-c]pyridin-1-yl]-1-piperidyl]methyl]-3-methoxy-1-piperidyl]-N-[3-(3-chloro-4-cyano-phenoxy)-2,2,4,4-tetramethyl-cyclobutyl]pyrimidine-5-carboxamide]"
